Consider 23 compounds from ChEMBL document CHEMBL5325506, “Discovery of neo-Clerodane Diterpenoids from Ajuga campylantha as Neuroprotective Agents against Ferroptosis and Neuroinflammation” (J Nat Prod, 2023).

For series [1], the system named is HT-22. Description: Cytotoxicity against mouse HT-22 cells assessed as reduction in cell viability at 30 uM incubated for 24 hrs by MTT assay. The series is classed as toxicity, cell-based. The note with it: ht-22, 24 h. Background: Tetrazolium dyes change colour on reduction, which living cells bring about.
In series [2] the test system is HT-22. Description: Inhibition of RSL3-induced ferroptosis in mouse HT-22 cells assessed as increase in cell viability at 30 uM incubated for 24 hrs by MTT assay. In kind it is functional, cell-based.
Series [3] concerns BV-2. Nature of the series: Anti-inflammatory activity in mouse BV-2 cells assessed as inhibition of LPS-induced NO accumulation measured after 24 hrs by Griess reagent-based analysis. In kind it is functional, cell-based. The note with it: BV-2, 24 h. On the technique in general: Nitrite, measured by Griess reagent, commonly stands in for NO production.
For series [4], the system named is BV-2. Description: Cytotoxicity against mouse BV-2 cells assessed as reduction in cell viability at 10 to 30 uM incubated for 24 hrs by MTT assay. The series is classed as toxicity, cell-based. The note with it: bv-2, 24 h, dose 10-30 µM.
A short description of series [5]: Metal chelating activity assessed as Fe2+-compound complex formation at 50 mM in presence of FeSO4 by UV-Visible spectrophotometry.
Series [6] deals with HT-22. Description: Reversal of RSL3-induced morphological changes in mouse HT-22 cells incubated for 24 hrs. In kind it is functional, cell-based. Conditions: dose 3-30 µM.
For series [7], the system named is HT-22. Nature of the series: Inhibition of RSL3-induced ferroptosis in mouse HT-22 cells assessed as increase in cell viability incubated for 24 hrs by MTT assay. The series is classed as functional, cell-based. The note with it: HT-22, 24 h.
Series [8] concerns HT-22. Description: Inhibition of RSL3-induced ferroptosis in mouse HT-22 cells assessed as reduction in lipid accumulation incubated for 4 hrs by BODIPY-C11 based flow cytometric analysis. The series is classed as functional, cell-based. Conditions: dose 3-30 µM.
Series [9] relates to HT-22. Nature of the series: Inhibition of RSL3-induced ferroptosis in mouse HT-22 cells assessed as reduction in cytosolic ROS accumulation incubated for 4 hrs by carboxy-H2DCFDA based flow cytometric analysis. In kind it is functional, cell-based. The note with it: dose 3-30 µM. A general note: In flow cytometry, cells or beads pass a laser one at a time.
In series [10] the test system is HT-22. Description: Inhibition of RSL3-induced ferroptosis in mouse HT-22 cells assessed as downregulation of PTGS2 mRNA expression at 10 to 30 uM incubated for 4 hrs by qRT-PCR analysis. The series is classed as functional, cell-based. The note with it: dose 10-30 µM.
The test system of series [11] is HT-22. Nature of the series: Inhibition of glutamate-induced ferroptosis in mouse HT-22 cells at 30 uM incubated for 24 hrs. The series is classed as functional, cell-based.
Series [12] concerns HT-22. Nature of the series: Inhibition of STS-induced apoptosis in mouse HT-22 cells at 30 uM incubated for 24 hrs. The series is classed as functional, cell-based.
For series [13], the system named is HT-22. Description: Inhibition of H2O2-induced necrosis in mouse HT-22 cells at 30 uM incubated for 24 hrs. In kind it is functional, cell-based.
Series [14] has as its system HT-22. Description: Inhibition of TNFalpha/AZD5582/Z-VAD-fmk induced necroptosis in mouse HT-22 cells at 30 uM incubated for 24 hrs. In kind it is functional, cell-based.
Series [15] in a line: Antioxidant activity assessed as DPPH radical scavenging activity at 100 uM measured after 30 mins by microplate spectrophotometer analysis. The series is classed as functional.

Active and inactive are the calls of the source. The calls are words filed in the database; no cut-off is given here.

Turning to `C=C1CCC[C@@H]2[C@@](C)(CCC3=CC(=O)OC3C)[C@H](C)C[C@H](O)[C@@]12C` (stereo partly specified), the Activity result in [1] is listed as “Non-Toxic”.

As for `COC1C=C(CC[C@@]2(C)[C@H](C)C[C@H](O)[C@]3(COC(C)=O)[C@@H]2CCC[C@]32CO2)C(=O)O1` (stereo partly specified), in series [1], the Activity result is “Non-Toxic”.

Turning to `C=C1CCC[C@@H]2[C@@](C)(CCC3=C[C@@H](OCC)O[C@@H]3OCC)[C@H](C)C[C@H](O)[C@@]12C`, in [1], the Activity entry is given as “Non-Toxic”.

As for `C[C@@H]1C[C@@H]2OC(=O)[C@@H]3CCC[C@H]([C@@]1(C)CCc1ccoc1)[C@@]23C`, in [1], the Activity result is “Non-Toxic”.

Consider `CCOC(=O)CC(=O)OC[C@@]1(O)CCC[C@@H]2[C@@](C)(CCc3ccoc3)[C@H](C)C[C@H](O)[C@]21C`, for which the Activity entry in series [1] is listed as “Non-Toxic”.

On to `C=C1CCC[C@@H]2[C@@](C)(CCc3ccoc3)[C@H](C)C[C@H](O)[C@@]12C`, for which the Activity entry in series [1] was “Non-Toxic”. Moreover, the inhibition result in series [2] was “Active”.

For orientation: IC50 means the point on the concentration scale where inhibition reaches its midpoint. For `Oc1ccc(/C=C/c2cc(O)cc(O)c2)cc1` [RESVERATROL], in [3], the half-inhibitory concentration (IC50) turned out to be 32 µM.

Turning to `C=C1CCC[C@@H]2[C@@](C)(CCC3=C[C@@H](OCC)OC3=O)[C@H](C)C[C@H](O)[C@@]12C`, in series [1], the Activity result was “Non-Toxic”.

Take `C=C1CCC[C@@H]2[C@@](C)(CCC3=CC(OC)OC3=O)[C@H](C)C[C@H](O)[C@@]12C` (stereo partly specified): the Activity entry in series [1] was “Non-Toxic”. The half-maximal inhibitory concentration (IC50) in series [3] was 41 µM.

Take `C=C1CCC[C@H]2[C@@]1(C)C(=O)C[C@@H](C)[C@]2(C)CCC1=CC(OC)OC1=O` (stereo partly specified): the Activity entry in series [1] and in series [4] was “Non-Toxic” in each case. In addition, the IC50 in [3] was 9.7 µM.

Regarding `C=C1CCC[C@@H]2[C@@](C)(CCC3=C[C@H](OCC)OC3=O)[C@H](C)C[C@H](O)[C@@]12C`, the Activity entry in [1] is “Non-Toxic”.

Regarding `CC(=O)N(O)CCCCCNC(=O)CCC(=O)N(O)CCCCCNC(=O)CCC(=O)N(O)CCCCCN`, the result in series [5] was Active.

Take `C=C1CCC[C@@H]2[C@@](C)(CCC3=CC(O)OC3=O)[C@H](C)C[C@H](O)[C@@]12C` (stereo partly specified): in series [1], the Activity entry was “Non-Toxic”.

Consider `C[C@@H]1C[C@H](C)C2=C(CO)CCC[C@@H]2[C@@]1(C)CCc1ccoc1`, for which the Activity result in [1] is recorded as “Non-Toxic”. In [2], the inhibition entry is “Active”.

For the compound `C=C1CCC[C@@H]2[C@@](C)(CC[C@]3(O)[C@@H](OCC)O[C@H](OCC)[C@H]3O)[C@H](C)C[C@H](O)[C@@]12C`, in series [1], the Activity result is “Non-Toxic”.

Turning to `C[C@@H]1C[C@H](O)[C@]2(C)[C@H](CCC[C@]2(O)CO)[C@@]1(C)CCc1ccoc1`, the Activity result in series [1] is “Non-Toxic”. For the same compound, the inhibition entry in series [2] was “Active”.

Broadly, the EC50 is the midpoint of the concentration-response curve. Turning to `C[C@@H]1C[C@H](O)[C@]2(C)[C@H](CCC[C@]23CO[C@@](C)(O)O3)[C@@]1(C)CCc1ccoc1`, the outcome in series [5] and in [15] was inactive. The Activity entry in [1] was “Non-Toxic”; in series [6] it was “Dose-Dependent Effect”. Moreover, the concentration for a half-maximal effect (EC50) in series [7] turned out to be 10 µM. Moreover, the inhibition entry in series [8] and in [9] was “Dose-Dependent Effect” in each case. Also, the inhibition result in series [10] and in [11] was “Active” throughout. Also, the inhibition entry in series [12], in [13] and in [14] was “inactive” throughout.

On to `C[C@@H]1C[C@H](O)[C@]2(C)[C@H](CCC[C@@]2(O)CO)[C@@]1(C)CCc1ccoc1`, for which the Activity result in [1] is listed as “Non-Toxic”. Moreover, the inhibition result in series [2] is “Active”.

In the case of `CC(=O)OC[C@@]1(O)CCC[C@@H]2[C@@](C)(CCc3ccoc3)[C@H](C)C[C@H](O)[C@]21C`, in series [1], the Activity result is on record as “Non-Toxic”.

Take `C=C1CCC[C@@H]2[C@@](C)(CCC3=C[C@H](OCC)O[C@@H]3OCC)[C@H](C)C[C@H](O)[C@@]12C`: the Activity result in series [1] is on record as “Non-Toxic”.

On to `C=C1CCC[C@@H]2[C@@](C)(CCC3=CC(=O)OC3)[C@H](C)C[C@H](O)[C@@]12C`, for which the Activity result in [1] is recorded as “Non-Toxic”.

On to `C=C1CCC[C@@H]2[C@@](C)(CC/C(=C/CO)CO)[C@H](C)C[C@H](O)[C@@]12C`, for which, in [1], the Activity entry is reported as “Non-Toxic”.

Regarding `CCO[C@@H]1C[C@@H]2C(C=O)=C(C)C[C@@H]2O1`, the Activity entry in series [1] is listed as “Non-Toxic”.
